According to patent US20120015925A1, “NOVEL BENZOTHIAZEPINE AND BENZOTHIEPINE COMPOUNDS” (ASAHI KASEI PHARMA CORPORATION, priority 2004, published 2012):

How the values were obtained:
[1] = test system: rats fed cholesterol food; assay: Blood cholesterol lowering effect in rats fed cholesterol food; assay type: in vivo, rat; conditions: 0.3 mg/kg per administration, oral, twice per day; SD (IGS) male rats; serum 3 hours after final administration
Method: In the present Test Example, a blood cholesterol lowering effect on rats fed cholesterol food was evaluated according to the method described in J. Lipid Res., 1995, 36, 1098-1105.
That is, the food containing 0.4% cholesterol and 0.5% bile acid was given to SD (IGS) strain male rats at 7 to 9 weeks of age for 5 days in advance of the test date, to increase blood cholesterol levels. The rats in which the blood cholesterol level had been obviously elevated from the level before loading the cholesterol food were selected as the subjects in the test. Colestimide (brand name: Cholebine 70% granules, supplied from Mitsubishi Tokyo Pharmaceutical Inc.) which is an anion exchange resin drug was suspended in distilled water, and the test compound was dissolved or suspended in distilled water. They were orally administered forcibly twice per day everyday from the starting date (each n=8). The blood was collected from jugular vein 3 hours after the drug administration on the final day of the experiment, and the cholesterol level in serum was measured to examine the effect of the test compound. As a control, another group (n=8) was merely fed cholesterol food, to which distilled water (1 mL/kg) was administered and the same procedure was applied. The total cholesterol value and the HDL cholesterol value were measured using commercially available kits. The value obtained by subtracting the HDL cholesterol value from the total cholesterol value was regarded as an LDL+VLDL cholesterol value.

[2] = test system: rats with partial ligation of the bile duct dosed bile acid; assay: Model for hepatic disorder associated with cholestasis (partial bile duct ligation model), Protocol A: AST, ALT, ALP; assay type: in vivo, rat; conditions: Table 12-2, 1 mg/kg in 1% HCO 60, N=3, mean±standard error; for ALT: control group 384 ± 156, sham 48 ± 5; for AST: control group 643 ± 125, sham 128 ± 18; for ALP: control group 2204 ± 327, sham 630 ± 87
Description: In the present Test Example, a model for the hepatic disorder caused by partial ligation of the bile duct was employed with reference to Kanno's method (Liver, 43, Suppl(1):A126, 2002).
That is, to the SD (IGS) strain male rats at 7 to 10 weeks of age, the partial ligation of the bile duct was given with opening the abdominal cavity under anesthesia with pentobarbital. Before the operation, the blood was collected from femoral vein, in order to obtain the value before the administration. From the day after the operation, 200 mg/kg of bile acid and the test compound were orally administered forcibly twice per day for 3.5 days (Protocol A). Without giving the partial ligation of the bile duct, 200 mg/kg of bile acid and the test compound were also orally administered forcibly twice per day for 3.5 days (Protocol B). In both cases, the test compound was dissolved or suspended in distilled water or an aqueous solution of 1% HCO 60 (Nippon Chemicals). To the control group, saline was administered. As comparative examples, 25 mg/kg of cholestyramine (supplied from Sigma) or 50 mg/kg of ursodeoxycholic acid (supplied from Mitsubishi Pharma) was administered. For considering the effect of the operation, sham operation (sham group) was performed in some cases. The blood was collected from the abdominal aorta 6 hours after the drug administration on the final day of the experiment. AST (GOT), ALT (GPT) and ALP in the blood were measured using measurement kits (GOT II-HA Test Wako, GPT II-HA Test Wako and Alkaline Phosphor HA Test Wako, all were supplied from Wako Pure Chemical Industries) and using an automatic analyzer (Nitech ANALAYZER SUPER Z818).

KKA^y/Ta Jcl male mice = assay: Obesity and fatty liver model: body weight and liver triglyceride; assay type: in vivo, mouse; conditions: Table 14-2; for BODY WEIGHT (g) BEFORE ADMINISTRATION: 1 mg/kg group, baseline, control group 44.1 ± 0.6; for BODY WEIGHT (g) DIFFERENCE / BODY WEIGHT (g) TWO WEEKS / LIVER TRIGLYCERIDE: 1 mg/kg once a day for 2 weeks; for BODY WEIGHT (g) DIFFERENCE: control group 0.7 ± 0.4; for BODY WEIGHT (g) TWO WEEKS: control group 44.8 ± 0.9; for LIVER TRIGLYCERIDE: control group 103 ± 19
Method: In the present Test Example, an obesity and fatty liver model was employed with reference to the method described in WO02/09757.
That is, KKA^y/Ta Jcl male mice at 10 weeks of age were used as obese mice (N=4 to 7). The test compound was dissolved or suspended in the aqueous solution of 1% HCO 60 (supplied from Nippon Chemicals). The aqueous solution of 1% HCO 60 (supplied from Nippon Chemicals) was used as the control. The consecutive administration was performed once a day for 2 weeks, and body weight was measured daily and compared with the body weight on the day before the administration. On the day after the final administration, the liver was removed, and a triglyceride concentration in liver tissue was measured using a measurement kit (Triglyceride Test Wako, supplied from Wako Pure Chemical Industries). The results are shown in the following Table 14 (Tables 14-1 to 14-3).

Caco-2 cell = assay: Gastrointestinal toxicity: cytotoxicity against Caco-2 cell (LDH activity); assay type: cell-based, human; conditions: 2 hours, LDH activity in medium relative to cell lysis agent = 100%
Method in brief: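 Caco-2 cells were grown 48 h, then exposed to compound in medium for 2 h. LDH released into the medium was measured, and cytotoxicity was expressed as activity relative to lysis-agent-treated cells (100%).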

[3] = test system: Wistar rats given choline-deficient food; assay: Steatohepatitis model: AST and ALT in blood; assay type: in vivo, rat; conditions: 3 mg/kg oral once a day for 2 weeks, n = 4, average ± standard error; for AST: control group (n = 6) 180 ± 46; for ALT: control group (n = 6) 245 ± 57
Description: In the present Test Example, a steatohepatitis model was employed with reference to the method of Okan A et al. (Dig. Dis. Sci., 47:2389-2397, 2002).
That is, choline-deficient food (supplied from Oriental Yeast Co., Ltd.) was given to Wistar rats at 7 weeks of age for two weeks to prepare a steatohepatitis model. The test compound was suspended in an aqueous solution of 0.5% methylcellulose (supplied from Wako Pure Chemical Industries), and the aqueous solution of 0.5% methylcellulose (supplied from Wako Pure Chemical Industries) was used as the control. They were orally administered once a day for consecutive 2 weeks. The blood was collected from the abdominal aorta on the day after the final drug administration. AST (GOT) and ALT (GPT) in the blood were measured using the measurement kits (GOT II-HA Test Wako and GPT II Test Wako, supplied from Wako Pure Chemical Industries) with an automatic analyzer (Nitech ANALAYZER SUPER Z818).

| SMILES | LDL + VLDL REDUCTION RATE (%) IN CHOLESTEROL FED RAT MODEL (THERAPEUTIC MODEL) [1] | ALT [2] | AST [2] | ALP [2] | BODY WEIGHT (g) BEFORE ADMINISTRATION (KKA^y/Ta Jcl male mice) | BODY WEIGHT (g) DIFFERENCE (KKA^y/Ta Jcl male mice) | BODY WEIGHT (g) TWO WEEKS (KKA^y/Ta Jcl male mice) | LIVER TRIGLYCERIDE (KKA^y/Ta Jcl male mice) | CELL TOXICITY AGAINST Caco2 3 μM (Caco-2 cell) | CELL TOXICITY AGAINST Caco2 10 μM (Caco-2 cell) | CELL TOXICITY AGAINST Caco2 30 μM (Caco-2 cell) | AST [3] | ALT [3] |
| --- | --- | --- | --- | --- | --- | --- | --- | --- | --- | --- | --- | --- | --- |
| CCCCC1(CCCC)CS(=O)(=O)c2ccc(N(C)C)cc2C(c2cccc(NC(=S)Nc3ccc(C[n+]4cccc(CCCO)c4)cc3)c2)N1.[Br-] (stereo not drawn) [EXAMPLE 3747] | 48% | 146 ± 70 IU/L | 245 ± 81 IU/L | 960 ± 259 IU/L | 44.3 ± 0.8 g | -2.1 ± 1.0 g | 42.2 ± 1.8 g | 47 ± 23 mg/g | <1% | <1% | <1% | 63 ± 86 IU/L | 102 ± 50 IU/L |
| CCCCC1(CCCC)CS(=O)(=O)c2ccc(N(C)C)cc2C(c2cccc(NC(=S)Nc3ccc(C[n+]4cccc(CCC(=O)OC)c4)cc3)c2)N1.[Br-] (stereo not drawn) [EXAMPLE 3752] | 50% | 165 ± 47 IU/L | 358 ± 87 IU/L | 1112 ± 184 IU/L | 43.8 ± 1.2 g | -2.3 ± 0.9 g | 41.5 ± 1.0 g | 56 ± 23 mg/g | <1% | <1% | <1% | 69 ± 98 IU/L | 88 ± 45 IU/L |
| CCCCC1(CCCC)CS(=O)(=O)c2ccc(N(C)C)cc2C(c2cccc(NC(=S)Nc3ccc(C[n+]4ccccc4CCC)cc3)c2)N1.[Br-] (stereo not drawn) [EXAMPLE 5408] | 43% | 197 ± 45 IU/L | 198 ± 65 IU/L | 1005 ± 102 IU/L | 44.0 ± 0.9 g | -1.8 ± 0.5 g | 42.2 ± 1.6 g | 70 ± 11 mg/g | <1% | <1% | <1% | 103 ± 45 IU/L | 149 ± 38 IU/L |
